Measurements as given in patent US8802664B2 (Bioproject, priority 2010, dated 2014).

Each compound was assayed against T1, human H4 receptor (Homo sapiens, UniProt Q9H3N8) (assay: [3H]Histamine binding on membranes of CHO cells stably expressing human H4 receptor).
T1 construct: expressed in transfected cells
T1 sequence (Q9H3N8 whole entry): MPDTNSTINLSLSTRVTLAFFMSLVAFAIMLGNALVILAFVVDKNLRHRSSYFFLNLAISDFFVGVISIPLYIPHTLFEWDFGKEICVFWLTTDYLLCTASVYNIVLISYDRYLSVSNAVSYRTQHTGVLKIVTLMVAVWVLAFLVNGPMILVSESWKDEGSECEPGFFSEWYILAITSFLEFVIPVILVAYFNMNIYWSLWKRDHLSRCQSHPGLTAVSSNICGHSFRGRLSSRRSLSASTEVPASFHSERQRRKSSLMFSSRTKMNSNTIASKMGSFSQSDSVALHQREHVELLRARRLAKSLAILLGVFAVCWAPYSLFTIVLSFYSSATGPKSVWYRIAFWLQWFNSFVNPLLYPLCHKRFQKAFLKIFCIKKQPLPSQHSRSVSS
In short: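 Membranes from sub-confluent CHO-hH4 cells, 20 μg protein per well, were incubated in 50 mM Tris/HCl, 0.5 mM EDTA, pH 7.4. Nonspecific binding was defined with 10 μM JNJ 7777120. Bound radioactivity was collected on PEI-soaked GF/B filters and counted by liquid scintillation.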
Compound `CN1CCC(OC(c2cccc(SCC(=O)NCCN)c2)c2nc3ccccc3[nH]2)CC1` (centres unmarked) [Example 436, N-(2-aminoethyl)-2-{3-[(1H-benzimidazol-2-yl)(1-methylpiperidin-4-yloxy)methyl]phenylsulfanyl}acetamide] has a Ki or IC50 activity class of under 0.03 µM. With `CN1CCC(OC(c2cccc(N3CCC(N)C3)c2)c2nc3ccccc3s2)CC1` (centres unmarked) [Example 423, 1-{3-[benzothiazol-2-yl(1-methylpiperidin-4-yloxy)methyl]phenyl}pyrrolidin-3-ylamine] the Ki or IC50 activity class was under 0.3 µM. For `CN1CCC(OC(c2cccc(C#CCCCN)c2)c2nc3ccccc3s2)CC1` (centres unmarked) [Example 287, 5-{3-[benzothiazol-2-yl(1-methylpiperidin-4-yloxy)methyl]phenyl}pent-4-ynylamine], the Ki or IC50 activity class was under 0.03 µM. Compound `Cc1ccc(C(OC2CCN(C)CC2)c2nc3ccccc3s2)cc1` (centres unmarked) [Example 7, 2-[(1-methylpiperidin-4-yloxy)-p-tolylmethyl]benzothiazole] has a Ki or IC50 activity class of under 0.3 µM. `CN1CCC(OC(c2nc3ccccc3[nH]2)c2cc(I)ccc2F)CC1` (centres unmarked) [Example 425, 2-[(2-fluoro-5-iodo-phenyl)(1-methylpiperidin-4-yloxy)methyl]-1H-benzimidazole] gave a Ki or IC50 activity class of under 0.03 µM. `CN1CCC(OC(c2nc3ccccc3[nH]2)c2cc(OC(F)(F)F)ccc2F)CC1` (single isomer, unassigned) [Example 435, 2-[(2-fluoro-5-trifluoromethoxyphenyl)(1-methylpiperidin-4-yloxy)methyl]-1H-benzimidazole] was tested, and the Ki or IC50 activity class was under 0.03 µM. `CN1CCC(OC(c2cccc(OCC=CCO)c2)c2nc3ccccc3s2)CC1` (centres unmarked) [Example 422, 4-{3-[benzothiazol-2-yl(1-methylpiperidin-4-yloxy)methyl]phenoxy}but-2-en-1-ol] gave a Ki or IC50 activity class of under 0.03 µM. `CN1CCC(OC(c2cccc(SCC3=NCCN3)c2)c2nc3cc(F)ccc3[nH]2)CC1` (centres unmarked) [Example 463] gave a Ki or IC50 activity class of under 1 µM. Compound `CN1CCC(OC(c2ccc3ccccc3c2)c2nc3ccccc3s2)CC1` (centres unmarked) [Example 18, 2-[(1-methylpiperidin-4-yloxy)naphthalen-2-ylmethyl]benzothiazole] has a Ki or IC50 activity class of under 0.3 µM. `Cc1ccc(C(OC2CCN(C)CC2)c2nc3ccccc3o2)c(F)c1` (centres unmarked) [Example 545] was tested, and the Ki or IC50 activity class was under 0.3 µM. `CN1CCC(OC(c2cccc(CCCCCCN)c2)c2nc3ccccc3s2)CC1` (centres unmarked) [Example 325, 6-{3-[benzothiazol-2-yl(1-methylpiperidin-4-yloxy)methyl]phenyl}hexylamine] showed a Ki or IC50 activity class of under 0.03 µM. In the case of `CC1=C(O)C(=NCCCCC#Cc2ccc(F)c(C(OC3CCN(C)CC3)c3nc4ccccc4[nH]3)c2)CC1` (centres unmarked) [Example 563, 5-(6-{3-[(1H-benzimidazol-2-yl)(1-methylpiperidin-4-yloxy)methyl]-4-fluorophenyl}hex-5-ynylimino)-2-methylcyclopent-1-enol], the Ki or IC50 activity class is reported as under 0.3 µM. Compound `CCCOc1cccc(C(OC2CCN(C)CC2)c2nc3ccccc3s2)c1` (centres unmarked) [Example 26, 2-[(1-methylpiperidin-4-yloxy)(3-propoxy-phenyl)methyl]benzothiazole] has a Ki or IC50 activity class of under 0.03 µM. In the case of `CN1CCC(OC(c2cc(C(F)(F)F)cc(C(F)(F)F)c2)c2nc3ccccc3[nH]2)CC1` (centres unmarked) [Example 547], the Ki or IC50 activity class is reported as under 1 µM. In the case of `CN1CCC(OC(c2cccc(OS(=O)(=O)C(F)(F)F)c2)c2nc3ccccc3s2)CC1` (centres unmarked) [Example 71, trifluoromethanesulfonic acid 3-[benzothiazol-2-yl(1-methylpiperidin-4-yloxy)methyl]phenyl ester], the Ki or IC50 activity class is reported as under 0.3 µM. `CCc1cccc(C(OC2CCN(C)CC2)c2nc3ccccc3s2)c1` (centres unmarked) [Example 152, 2-[(3-ethylphenyl)(1-methylpiperidin-4-yloxy)methyl]benzothiazole] was tested, and the Ki or IC50 activity class was under 0.03 µM. `CN1CCC(OC(c2cccc(SCCCCN)c2)c2nc3cc(F)ccc3[nH]2)CC1` (centres unmarked) [Example 440, 4-{3-[(5-fluoro-1H-benzimidazol-2-yl)(1-methylpiperidin-4-yloxy)methyl]phenylsulfanyl}butylamine] showed a Ki or IC50 activity class of under 0.03 µM. `CN1CCC(OC(c2cccc(OC3CNC3)c2)c2nc3ccccc3s2)CC1` (centres unmarked) [Example 402, 2-[[3-(azetidin-3-yloxy)phenyl](1-methylpiperidin-4-yloxy)methyl]benzothiazole] gave a Ki or IC50 activity class of under 0.3 µM. `CC(=O)OC1CCN(c2cccc(C(OC3CCN(C)CC3)c3nc4ccccc4s3)c2)CC1` (centres unmarked) [Example 413, acetic acid 1-{3-[benzothiazol-2-yl(1-methylpiperidin-4-yloxy)methyl]phenyl}piperidin-4-yl ester] gave a Ki or IC50 activity class of under 0.3 µM. Work on `CN1CCC(OC(c2cccc(-c3ccc(F)cc3)c2)c2nc3ccccc3s2)CC1` (centres unmarked) [Example 136, 2-[(4′-fluorobiphenyl-3-yl)(1-methylpiperidin-4-yloxy)methyl]benzothiazole] yielded a Ki or IC50 activity class of under 0.3 µM. Compound `CN1CCC(OC(c2cccc(OCCN3CCNCC3)c2)c2nc3ccccc3s2)CC1` (centres unmarked) [Example 330, 2-{(1-methylpiperidin-4-yloxy)[3-(2-piperazin-1-yl-ethoxy)phenyl]methyl}benzothiazole] has a Ki or IC50 activity class of under 0.3 µM. `CCn1c(C(OC2CCN(C)CC2)c2cccc(C#CCCCCN)c2)nc2ccccc21` (centres unmarked) [Example 503] gave a Ki or IC50 activity class of under 0.3 µM. For `CN1CCC(OC(c2cccc(SCC(=O)NCCN)c2)c2nc3cc(F)ccc3[nH]2)CC1` (centres unmarked) [Example 459], the Ki or IC50 activity class was under 0.03 µM. For `CN1CCC(OC(c2cccc(-c3ccc(C(F)(F)F)cc3)c2)c2nc3ccccc3s2)CC1` (centres unmarked) [Example 140, 2-[(1-methylpiperidin-4-yloxy)(4′-trifluoromethylbiphenyl-3-yl)methyl]benzothiazole], the Ki or IC50 activity class was under 0.3 µM. In the case of `CN1CCC(OC(c2nc3ccccc3s2)c2c(F)cc(Cl)cc2F)CC1` (centres unmarked) [Example 532], the Ki or IC50 activity class is reported as under 0.3 µM. `CN1CCC(OC(c2cccc(N3CCCC3CN)c2)c2nc3ccccc3s2)CC1` (centres unmarked) [Example 482] gave a Ki or IC50 activity class of under 0.03 µM. Work on `CN1CCC(OC(c2cccc(I)c2)c2nc3ccccc3s2)CC1` (single isomer, unassigned) [Example 117, 2-[(3-iodophenyl)(1-methylpiperidin-4-yloxy)methyl]benzothiazole] yielded a Ki or IC50 activity class of under 0.03 µM. `CN1CCC(NC(c2cccc(OCc3ccccc3F)c2)c2nc3ccccc3[nH]2)CC1` (centres unmarked) [Example 113, {(1H-benzimidazol-2-yl)[3-(2-fluorobenzyloxy)phenyl]methyl}(1-methylpiperidin-4-yl)amine] was tested, and the Ki or IC50 activity class was under 0.03 µM. `CN1CCC(OC(c2cccc(C#CCCCn3cccn3)c2)c2nc3ccccc3[nH]2)CC1` (centres unmarked) [Example 410, 2-{(1-methylpiperidin-4-yloxy)[3-(5-pyrazol-1-yl-pent-1-ynyl)phenyl]methyl}-1H-benzimidazole] showed a Ki or IC50 activity class of under 0.3 µM. `CN1CCC(OC(c2cccc(C=CS(C)(=O)=O)c2)c2nc3ccccc3s2)CC1` (centres unmarked) [Example 212, 2-[[3-(2-methanesulfonylvinyl)phenyl](1-methylpiperidin-4-yloxy)methyl]benzothiazole] showed a Ki or IC50 activity class of under 1 µM. In the case of `CN1CCC(OC(c2cccc(C#CCCCN)c2)c2nc3cc(F)ccc3[nH]2)CC1` (centres unmarked) [Example 438, 5-{3-[(5-fluoro-1H-benzimidazol-2-yl)(1-methylpiperidin-4-yloxy)methyl]phenyl}pent-4-ynylamine], the Ki or IC50 activity class is reported as under 0.03 µM. For `CN1CCC(OC(c2cccc(N3CCC(O)CC3)c2)c2nc3ccccc3s2)CC1` (centres unmarked) [Example 411, 1-{3-[benzothiazol-2-yl(1-methylpiperidin-4-yloxy)methyl]phenyl}piperidin-4-ol], the Ki or IC50 activity class was under 1 µM. `CN1CCC(OC(c2cccc(CCCCN)c2)c2nc3ccccc3s2)CC1` (centres unmarked) [Example 366, 4-{3-[benzothiazol-2-yl(1-methylpiperidin-4-yloxy)methyl]phenyl}butylamine] gave a Ki or IC50 activity class of under 0.03 µM. `CN1CCC(OC(c2cccc(OCCCCCN)c2)c2nc3ccccc3s2)CC1` (centres unmarked) [Example 371, 5-{3-[benzothiazol-2-yl(1-methylpiperidin-4-yloxy)methyl]phenoxy}pentylamine] was tested, and the Ki or IC50 activity class was under 0.03 µM. `CN1CCC(NC(c2cccc(-c3ccccc3)c2)c2nc3ccccc3s2)CC1` (centres unmarked) [Example 102, (benzothiazol-2-ylbiphenyl-3-ylmethyl)(1-methylpiperidin-4-yl)amine] gave a Ki or IC50 activity class of under 0.03 µM. Work on `Cc1cc(C(NC2CCN(C)CC2)c2nc3ccccc3s2)ccc1F` (centres unmarked) [Example 35, [benzothiazol-2-yl(4-fluoro-3-methyl-phenyl)methyl](1-methylpiperidin-4-yl)amine] yielded a Ki or IC50 activity class of under 1 µM. With `CN1CCC(OC(c2ccc(O)cc2)c2nc3ccccc3[nH]2)CC1` (centres unmarked) [Example 597] the Ki or IC50 activity class was under 1 µM. In the case of `CN1CCC(OC(c2cccc(NCc3ccccc3)c2)c2nc3ccccc3s2)CC1` (centres unmarked) [Example 234, {3-[benzothiazol-2-yl(1-methylpiperidin-4-yloxy)methyl]phenyl}benzyl-amine], the Ki or IC50 activity class is reported as under 0.3 µM. `CN1CCC(OC(c2cccc(SCCNC3=NCCN3)c2)c2nc3ccccc3[nH]2)CC1` (centres unmarked) [Example 317, (2-{3-[(1H-benzimidazol-2-yl)(1-methylpiperidin-4-yloxy)methyl]-phenylsulfanyl}ethyl)(4,5-dihydro-1H-imidazol-2-yl)amine] showed a Ki or IC50 activity class of under 1 µM. Work on `CN1CCC(OC(c2cccc(C3=CCNCC3)c2)c2nc3ccccc3[nH]2)CC1` (centres unmarked) [Example 338, 2-{(1-methylpiperidin-4-yloxy)[3-(1,2,3,6-tetrahydro-pyridin-4-yl)phenyl]methyl}-1H-benzimidazole] yielded a Ki or IC50 activity class of under 0.3 µM. In the case of `COc1cc(F)cc(C(NC2CCN(C)CC2)c2nc3ccccc3s2)c1` (centres unmarked) [Example 43, [benzothiazol-2-yl(3-fluoro-5-methoxyphenyl)methyl](1-methylpiperidin-4-yl)amine], the Ki or IC50 activity class is reported as under 0.3 µM. In the case of `CN1CCC(OC(c2cccc(SCCCCNC(=N)N)c2)c2nc3ccccc3[nH]2)CC1` (centres unmarked) [Example 444, N-(4-{3-[(1H-benzimidazol-2-yl)(1-methylpiperidin-4-yloxy)methyl]phenylsulfanyl}butyl)guanidine], the Ki or IC50 activity class is reported as under 0.3 µM. `CN1CCC(OC(c2cccc(-c3cccc([N+](=O)[O-])c3)c2)c2nc3ccccc3s2)CC1` (centres unmarked) [Example 97, 2-[(1-methylpiperidin-4-yloxy)(3′-nitrobiphenyl-3-yl)methyl]benzothiazole] gave a Ki or IC50 activity class of under 0.3 µM. Compound `CCCOc1ccc(F)c(C(OC2CCN(C)CC2)c2nc3ccccc3[nH]2)c1` (centres unmarked) [Example 519] has a Ki or IC50 activity class of under 0.03 µM.
